Assay results reported in US9732119B2, “Immunomodulators” (BRISTOL-MYERS SQUIBB COMPANY, priority 2014, dated 2017).
Positions of bridges follow the written chain, without caps; N, C: chain ends. Non-standard residues stand in square brackets, D forms with d. Residues, ends and D or L forms follow the SMILES beside them. Trp(1-CH2COOH) = N[C@@H](Cc1cn(CC(=O)O)c2ccccc12)C(=O)O; Phe(4-Cl) = N[C@@H](Cc1ccc(Cl)cc1)C(=O)O; Phe(4-Me) = Cc1ccc(C[C@H](N)C(=O)O)cc1; Hyp = O=C(O)[C@@H]1C[C@@H](O)CN1; Aad = N[C@@H](CCCC(=O)O)C(=O)O; NMeNle = CCCC[C@H](NC)C(=O)O; Pip = O=C(O)[C@@H]1CCCCN1; NMeA = CN[C@@H](C)C(=O)O; Orn = NCCC[C@H](N)C(=O)O; Dab = NCC[C@H](N)C(=O)O; Dap = NC[C@H](N)C(=O)O; AEA = NCCOCC(=O)O; Ava = NCCCCC(=O)O; βAla = NCCC(=O)O; Sar = CNCC(=O)O

biological target: T1, PD-1-Ig binding to PD-L1-TVMV-His (PD-L1-His) (Homo sapiens, UniProt Q9NZQ7); assay: PD-1/PD-L1 Homogenous Time-Resolved Fluorescence (HTRF) binding assay; conditions: PD-1-Ig (20 nM) / PD-L1-His (10 nM); numeric values
T1 construct: hPDL1(19-239)-TVMV-His; made in house; host or cells: HEK293T cells
In short: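 In dPBS with 0.1% BSA and 0.05% Tween-20, inhibitors were preincubated 15 min with 10 nM PD-L1-His before 20 nM PD-1-Ig was added for another 15 min. Binding read by time-resolved FRET between Eu-cryptate anti-Ig (1 nM) and APC anti-His (20 nM).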

T1 sequence (Q9NZQ7 with tags, fused parts or gaps): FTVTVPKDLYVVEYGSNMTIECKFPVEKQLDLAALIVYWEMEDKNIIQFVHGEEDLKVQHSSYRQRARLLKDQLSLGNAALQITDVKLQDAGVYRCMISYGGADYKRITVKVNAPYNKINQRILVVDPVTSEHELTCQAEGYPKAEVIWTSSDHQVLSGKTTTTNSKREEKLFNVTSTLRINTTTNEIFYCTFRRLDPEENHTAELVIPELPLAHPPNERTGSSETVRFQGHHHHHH

SMILES | IC50
CCCC[C@H]1C(=O)N(C)[C@@H](CCCC)C(=O)N[C@@H](CC(C)C)C(=O)NCCCCC(=O)N[C@@H](Cc2ccc(O)cc2)C(=O)N2CCCC[C@H]2C(=O)N[C@@H](CC(N)=O)C(=O)N2CCC[C@H]2C(=O)N[C@@H](CN)C(=O)N[C@@H](CCC(=O)O)C(=O)N2C[C@H](O)C[C@H]2C(=O)N[C@@H](Cc2c[nH]c3ccccc23)C(=O)N[C@@H](CCN)C(=O)N[C@@H](Cc2cn(CC(=O)O)c3ccccc23)C(=O)N1C [Example 10513] (cyclo([Ava]Y[Pip]NP[Dap]E[Hyp]W[Dab][Trp(1-CH2COOH)][NMeNle][NMeNle]L)) | 354 nM
CCCC[C@H]1C(=O)N(C)[C@@H](CCCC)C(=O)N[C@@H](CC(C)C)C(=O)NCCC[C@H](N)C(=O)N[C@@H](Cc2ccc(Cl)cc2)C(=O)N2CCCC[C@H]2C(=O)N[C@@H](CC(N)=O)C(=O)N2CCC[C@H]2C(=O)N[C@@H](CN)C(=O)N[C@@H](CC(C)C)C(=O)N2C[C@H](O)C[C@H]2C(=O)N[C@@H](Cc2c[nH]c3ccccc23)C(=O)N[C@@H](CCN)C(=O)N[C@@H](Cc2cn(CC(=O)O)c3ccccc23)C(=O)N1C [Example 10545] (H-[Orn][Phe(4-Cl)][Pip]NP[Dap]L[Hyp]W[Dab][Trp(1-CH2COOH)][NMeNle][NMeNle]L; lactam 1-C) | 8 nM
CCCC[C@H]1C(=O)N(C)[C@@H](CCCC)C(=O)N[C@@H](CC(C)C)C(=O)NCCCCC(=O)N[C@@H](Cc2ccc(O)cc2)C(=O)N(C)[C@@H](C)C(=O)N[C@@H](CC(=O)O)C(=O)N2CCC[C@H]2C(=O)N[C@@H](Cc2c[nH]cn2)C(=O)N[C@@H](CCCCN)C(=O)N2C[C@H](O)C[C@H]2C(=O)N[C@@H](Cc2c[nH]c3ccccc23)C(=O)N[C@@H](CCCCN)C(=O)N[C@@H](Cc2cn(CC(=O)O)c3ccccc23)C(=O)N1C [Example 10509] (cyclo([Ava]Y[NMeA]DPHK[Hyp]WK[Trp(1-CH2COOH)][NMeNle][NMeNle]L)) | 765 nM

same assay, conditions: PD-1-Ig (20 nM) / PD-L1-His (10 nM); range classes

SMILES | IC50
CCCC[C@H]1C(=O)N(C)[C@@H](CCCC)C(=O)N[C@@H](CC(C)C)C(=O)N[C@H](C(N)=O)CNCC(=O)N[C@@H](Cc2ccc(F)cc2)C(=O)N2CCCC[C@H]2C(=O)N[C@@H](CC(N)=O)C(=O)N2CCC[C@H]2C(=O)N[C@@H](CCC(N)=O)C(=O)N[C@@H](CCC(=O)O)C(=O)N2C[C@H](O)C[C@H]2C(=O)N[C@@H](Cc2c[nH]c3ccccc23)C(=O)N[C@@H](CC(N)=O)C(=O)N[C@@H](Cc2cn(CC(=O)O)c3ccccc23)C(=O)N1C [Example 9032] | 1 to 9.9 nM
CCCC[C@H]1C(=O)N(C)[C@@H](CCCC)C(=O)N[C@@H](CC(C)C)C(=O)N[C@H](C(N)=O)CCCC(=O)N[C@@H](Cc2ccc(C)cc2)C(=O)N2CCCC[C@H]2C(=O)N[C@@H](CC(N)=O)C(=O)N2CCC[C@H]2C(=O)N[C@@H](CN)C(=O)N[C@@H](CCC(=O)O)C(=O)N2C[C@H](O)C[C@H]2C(=O)N[C@@H](Cc2c[nH]c3ccccc23)C(=O)N[C@@H](CCN)C(=O)N[C@@H](Cc2cn(CC(=O)O)c3ccccc23)C(=O)N1C [Example 10521] ([Phe(4-Me)][Pip]NP[Dap]E[Hyp]W[Dab][Trp(1-CH2COOH)][NMeNle][NMeNle]L[Aad]-NH2; lactam N-14) | 10 to 99 nM
CCCC[C@H]1C(=O)N(C)[C@@H](CCCC)C(=O)NC(CC(C)C)C(=O)N[C@H](C(=O)NCC(N)=O)CNCC(=O)N[C@@H](Cc2ccc(O)cc2)C(=O)N(C)[C@@H](C)C(=O)N[C@@H](CC(N)=O)C(=O)N2CCC[C@H]2C(=O)N[C@@H](CC(N)=O)C(=O)N[C@@H](CC(C)C)C(=O)N2C[C@H](O)C[C@H]2C(=O)N[C@@H](Cc2c[nH]c3ccccc23)C(=O)N[C@@H](CC(N)=O)C(=O)N[C@@H](Cc2c[nH]c3ccccc23)C(=O)N1C (some centres unmarked) [Example 10001] | 1 to 9.9 nM
CCCC[C@H]1C(=O)N(C)[C@@H](CCCC)C(=O)N[C@@H](CC(C)C)C(=O)NCCOCC(=O)N[C@@H](Cc2ccc(O)cc2)C(=O)N(C)[C@@H](C)C(=O)N[C@@H](CC(N)=O)C(=O)N2CCC[C@H]2C(=O)N[C@@H](CN)C(=O)N[C@@H](CC(C)C)C(=O)N2C[C@H](O)C[C@H]2C(=O)N[C@@H](Cc2c[nH]c3ccccc23)C(=O)N[C@@H](CCN)C(=O)N[C@@H](Cc2c[nH]c3ccccc23)C(=O)N1C [Example 10501] (cyclo([AEA]Y[NMeA]NP[Dap]L[Hyp]W[Dab]W[NMeNle][NMeNle]L)) | 1 to 9.9 nM
CCCC[C@H]1C(=O)N(C)[C@@H](CCCC)C(=O)NC(CC(C)C)C(=O)N[C@H](C(N)=O)CNCC(=O)N[C@@H](Cc2ccc(O)cc2)C(=O)N(C)[C@@H](C)C(=O)N[C@@H](CC(N)=O)C(=O)N2CCC[C@H]2C(=O)N[C@@H](CN)C(=O)N[C@@H](CC(C)C)C(=O)N2C[C@H](O)C[C@H]2C(=O)N[C@@H](Cc2c[nH]c3ccccc23)C(=O)N[C@@H](CCCCN)C(=O)N[C@@H](Cc2cn(CC(=O)O)c3ccccc23)C(=O)N1C (some centres unmarked) [Example 1033] | 10 to 99 nM
CCCC[C@H]1C(=O)N(C)[C@@H](CCCC)C(=O)N[C@@H](CCC(=O)O)C(=O)N[C@H](C(=O)NCC(N)=O)CNCC(=O)N[C@@H](Cc2ccc(O)cc2)C(=O)N(C)[C@@H](C)C(=O)N[C@@H](CC(N)=O)C(=O)N2CCC[C@H]2C(=O)N[C@@H](CCC(N)=O)C(=O)N[C@@H](CC(=O)O)C(=O)N2C[C@H](O)C[C@H]2C(=O)N[C@@H](Cc2c[nH]c3ccccc23)C(=O)N[C@@H](CC(N)=O)C(=O)N[C@@H](Cc2cn(CC(=O)O)c3ccccc23)C(=O)N1C [Example 9019] | 1 to 9.9 nM
CCCC[C@H]1C(=O)N(C)[C@@H](CCCC)C(=O)N[C@@H](C)C(=O)N[C@H](C(=O)NCC(N)=O)CCNCC(=O)N[C@@H](Cc2ccc(O)cc2)C(=O)N(C)[C@@H](C)C(=O)N[C@@H](CC(=O)O)C(=O)N2CCC[C@H]2C(=O)N[C@@H](Cc2cnc[nH]2)C(=O)N[C@@H](CCC(N)=O)C(=O)N2C[C@H](O)C[C@H]2C(=O)N[C@@H](Cc2c[nH]c3ccccc23)C(=O)N[C@@H](CO)C(=O)N[C@@H](Cc2c[nH]c3ccccc23)C(=O)N1C [Example 10012] | 10 to 99 nM
CCCC[C@H]1C(=O)N(C)[C@@H](CCCC)C(=O)N[C@@H](CCC(=O)O)C(=O)N[C@H](C(N)=O)CNCC(=O)N[C@@H](Cc2ccc(O)cc2)C(=O)N2CCCC[C@H]2C(=O)N[C@@H](CC(N)=O)C(=O)N2CCC[C@H]2C(=O)N[C@@H](CCC(N)=O)C(=O)N[C@@H](CCC(=O)O)C(=O)N2C[C@H](O)C[C@H]2C(=O)N[C@@H](Cc2c[nH]c3ccccc23)C(=O)N[C@@H](CC(N)=O)C(=O)N[C@@H](Cc2cn(CC(=O)O)c3ccccc23)C(=O)N1C [Example 9044] | 1 to 9.9 nM
CCCC[C@H]1C(=O)N(C)[C@@H](CCCC)C(=O)N[C@@H](CC(C)C)C(=O)N[C@H](C(=O)NCC(N)=O)CNCC(=O)N[C@@H](Cc2ccc(O)cc2)C(=O)N(C)[C@@H](C)C(=O)N[C@@H](CC(N)=O)C(=O)N2CCC[C@H]2C(=O)N[C@@H](CCC(N)=O)C(=O)N[C@@H](CC(=O)O)C(=O)N2C[C@H](O)C[C@H]2C(=O)N[C@@H](Cc2c[nH]c3ccccc23)C(=O)N[C@@H](CC(N)=O)C(=O)N[C@@H](Cc2cn(CC(=O)O)c3ccccc23)C(=O)N1C [Example 9006] | 1 to 9.9 nM
CCCC[C@H]1C(=O)N(C)[C@@H](CCCC)C(=O)NC(CC(C)C)C(=O)N[C@H](C(=O)NCC(N)=O)CNCC(=O)N[C@@H](Cc2ccc(O)cc2)C(=O)N(C)[C@@H](C)C(=O)N[C@@H](CC(N)=O)C(=O)N2CCC[C@H]2C(=O)N[C@@H](CN)C(=O)N[C@@H](CC(C)C)C(=O)N2C[C@H](O)C[C@H]2C(=O)N[C@@H](Cc2c[nH]c3ccccc23)C(=O)N[C@@H](CCN)C(=O)N[C@@H](Cc2c[nH]c3ccccc23)C(=O)N1C (some centres unmarked) [Example 1029] | 10 to 99 nM
CCCC[C@H]1C(=O)N(C)[C@@H](CCCC)C(=O)N[C@@H](CCC(=O)O)C(=O)N[C@H](C(N)=O)CNCC(=O)N[C@@H](Cc2ccc(O)cc2)C(=O)N2CCCC[C@H]2C(=O)N[C@@H](CC(N)=O)C(=O)N2CCC[C@H]2C(=O)N[C@@H](Cc2c[nH]cn2)C(=O)N[C@@H](CCC(N)=O)C(=O)N2C[C@H](O)C[C@H]2C(=O)N[C@@H](Cc2c[nH]c3ccccc23)C(=O)N[C@@H](C)C(=O)N[C@@H](Cc2cn(CC(=O)O)c3ccccc23)C(=O)N1C [Example 9056] | 1 to 9.9 nM
CCCC[C@H]1C(=O)N(C)[C@@H](CCCC)C(=O)N[C@@H](CCC(=O)O)C(=O)N[C@H](C(=O)NCC(N)=O)CNCC(=O)N[C@@H](Cc2ccc(O)cc2)C(=O)N(C)[C@@H](C)C(=O)N[C@@H](CC(N)=O)C(=O)N2CCC[C@H]2C(=O)N[C@@H](CCC(N)=O)C(=O)N[C@@H](CCC(=O)O)C(=O)N2C[C@H](O)C[C@H]2C(=O)N[C@@H](Cc2c[nH]c3ccccc23)C(=O)N[C@@H](CC(N)=O)C(=O)N[C@@H](Cc2cn(CC(=O)O)c3ccccc23)C(=O)N1C [Example 9020] | 10 to 99 nM
CCCC[C@H]1C(=O)N(C)[C@@H](CCCC)C(=O)N[C@@H](CC(C)C)C(=O)N(C)CC(=O)NCC(=O)N[C@@H](Cc2ccc(O)cc2)C(=O)N(C)[C@@H](C)C(=O)N[C@@H](CC(N)=O)C(=O)N2CCC[C@H]2C(=O)N[C@@H](CN)C(=O)N[C@@H](CC(C)C)C(=O)N2C[C@H](O)C[C@H]2C(=O)N[C@@H](Cc2c[nH]c3ccccc23)C(=O)N[C@@H](CCN)C(=O)N[C@@H](Cc2c[nH]c3ccccc23)C(=O)N1C [Example 5009] (cyclo([Dab]W[NMeNle][NMeNle]L[Sar]GY[NMeA]NP[Dap]L[Hyp]W)) | 1 to 9.9 nM
CCCC[C@H]1C(=O)N(C)[C@@H](CCCC)C(=O)N[C@@H](CC(C)C)C(=O)NCC(=O)NCCC(=O)N[C@@H](Cc2ccc(O)cc2)C(=O)N(C)[C@@H](C)C(=O)N[C@@H](CC(N)=O)C(=O)N2CCC[C@H]2C(=O)N[C@@H](Cc2c[nH]cn2)C(=O)N[C@@H](CC(C)C)C(=O)N2C[C@H](O)C[C@H]2C(=O)N[C@@H](Cc2c[nH]c3ccccc23)C(=O)NCC(=O)N[C@@H](Cc2c[nH]c3ccccc23)C(=O)N1C [Example 5004] (cyclo(GW[NMeNle][NMeNle]LG[βAla]Y[NMeA]NPHL[Hyp]W)) | 100 to 10000 nM
